Values of other authors, collected in US11517624B2, “Pharmaceutical composition for the parenteral administration of ultrashort-effective β-adrenoreceptor antagonists” (AOP ORPHAN PHARMACEUTICALS AG, priority 2007, dated 2022).

- elimination half-life t1/2: 1.5 h
SMILES: COCCc1ccc(OCC(O)CNC(C)C)cc1 (stereo not shown) [metoprolol]
